Formation of NO3-, Formation of compound and Formation of NO2- data for 17 compounds are collected here from ChEMBL document CHEMBL1128622, “Formation of nitrogen oxides including NO from oxidative cleavage of CN(OH) bonds: A general cytochrome P450-dependent reaction” (Bioorg Med Chem Lett, 1995).

Each structure is given as a SMILES string.

The species entered for test [1] is Rattus norvegicus. The test is described as follows: Ability to undergo a P450-dependent oxidative cleavage of the C=N bond by incubating with rat (treated by DEX) liver microsomes in the presence of NADPH. The test is classed as functional. (In general: Liver microsomes are a subcellular fraction often used to study metabolism.)
The species entered for test [2] is Rattus norvegicus. The test is described as follows: Ability to undergo a P450-dependent oxidative cleavage of their C=N bond, to release corresponding alkylketone derivative by incubating with rat (treated by DEX) liver microsomes in the presence of the NADPH. It is filed as functional.
The species entered for test [3] is Rattus norvegicus. Particulars: Liver, Microsomes.
Description: Ability to undergo a P450-dependent oxidative cleavage of the C=N bond by incubating with rat (untreated) liver microsomes in the presence of NADPH
For test [4], the species on record is Rattus norvegicus. Conditions: Liver, Microsomes. This is another data set of the same source.
The species entered for test [5] is Rattus norvegicus. The test is described as follows: Ability to undergo a P450-dependent oxidative cleavage of their C=N bond, to release NO3- by incubating with rat (treated by DEX) liver microsomes in the presence of NADPH. The test is classed as functional.

Turning to `C/C(=N\O)c1ccc(Cl)cc1`, the Formation of NO3- in test [1] was 1.2 nM. Besides, the Formation of compound in test [2] came to 6.4 nM. In addition, the results for the Formation of NO2- in test [3] and in test [4] were 0.1 nM and 6.2 nM, respectively.
On to `N/C(=N/C1CCCCC1)NO`, for which the Formation of NO2- is less than 0.1 nM in test [3] and 28.6 nM in test [4].
On the same counts, the results for `O/N=C/c1ccccc1` are less than 0.1 nM and 3 nM.
On the same counts, the results for `N/C(=N/c1ccc(C(F)(F)F)cc1)NO` are less than 0.1 nM and 11 nM.
Regarding `CCCCCCOc1ccc(C(=N)NO)cc1`, the Formation of compound in test [2] is 12.5 nM. Further, the figures for the Formation of NO2- in test [3] and in test [4] were 0.6 nM and 6.8 nM, respectively. Besides, the Formation of NO3- in test [5] was 8.1 nM.
In the case of `ON=C(NC1CCCCC1)NC1CCCCC1`, the Formation of NO2- in test [3] was less than 0.1 nM; in test [4] it was 58 nM.
On the same counts, the results for `CCCCC/C(C)=N\O` are less than 0.1 nM and 7 nM.
In the same order, the values of `CC(C)/N=C(/NO)NC(C)C` are 0.9 nM and 62 nM.
On the same counts, the results for `O/N=C/c1ccc(Cl)cc1` are less than 0.1 nM and 2 nM.
In the case of `N/C(=N\O)c1ccc(Cl)cc1`, in test [2], the Formation of compound came to 5.1 nM. The Formation of NO2- is 0.7 nM in test [3] and 2.6 nM in test [4]. Moreover, the Formation of NO3- in test [5] stood at 1.5 nM.
`CCCC/C(CC)=N\O`: the Formation of NO2- in test [3] was less than 0.1 nM; in test [4], 5.1 nM.
On the same counts, the results for `C/C(=N\O)c1ccccc1` are less than 0.1 nM and 3.2 nM.
For the compound `N=C(NO)Nc1ccc(Cl)cc1`, the Formation of compound in test [2] amounted to 17.7 nM. For the same compound, the Formation of NO2- in test [3] came out at 0.6 nM; in test [4], 18.4 nM. The Formation of NO3- in test [5] turned out to be 4.4 nM.
As to `CCCCCC/C=N/O`, the results for the Formation of NO2- in test [3] and in test [4] were 0.2 nM and 3.7 nM, respectively.
On to `N/C(=N\O)c1ccccc1`, for which the Formation of NO2- in test [3] is 0.2 nM; in test [4] it was 2.5 nM.
In the same order, the values of `ON=C1CCCCC1` are less than 0.1 nM and 3 nM.
On the same counts, the results for `N/C(=N\O)N1CCCCC1` are 1.1 nM and 79 nM.
